Data reported in patent US20250302832A1, “PYRAZINE DERIVATIVES AND USES THEREOF” (FOGHORN THERAPEUTICS INC., priority 2022, published 2025).

How the values were obtained:
HiBit-BRM fusion protein = biological target: T1, HiBit-BRM fusion protein (Homo sapiens, UniProt P51531); assay: HiBiT-BRM cell-based degradation assay (Nano-Glo HiBiT lytic detection, 24 h); settings: HeLa cell line expressing HiBiT-BRM; for DC50: read-out: BRM HiBit Degradation IC50
T1 construct: expressed in transfected cells
In short: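 Stable HeLa HiBiT-BRM cells treated 24 h with compounds (10-point 3-fold dilutions, 30 μM final top dose, duplicate). HiBiT levels read by Nano-Glo lytic luminescence; % degradation normalised to DMSO (high control) and 2 μM reference BRM/BRG1 degrader (low control).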

[1] = biological target: T2, HiBit-BRG1 fusion protein (Homo sapiens, UniProt P51532); assay: HiBiT-BRG1 cell-based degradation assay (Nano-Glo HiBiT lytic detection, 24 h); settings: HeLa cell line expressing HiBit-BRG1 and LgBit; for Dmax: read-out: BRG1 HiBit Degradation Maximum (%); for DC50: read-out: BRMG1 HiBit Degradation IC50
T2 construct: expressed in transfected cells
In short: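 HeLa cells stably expressing HiBiT-BRG1 and LgBiT, 5000 per well, compound-treated 24 h, equilibrated 15 min at room temperature, then lysed with LgBiT-containing Nano-Glo HiBiT lytic reagent and luminescence read. % degradation normalised between DMSO (high control) and 2 μM reference BRM/BRG1 degrader (low control).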

T2 sequence (P51532 whole entry, the tested form may be a part): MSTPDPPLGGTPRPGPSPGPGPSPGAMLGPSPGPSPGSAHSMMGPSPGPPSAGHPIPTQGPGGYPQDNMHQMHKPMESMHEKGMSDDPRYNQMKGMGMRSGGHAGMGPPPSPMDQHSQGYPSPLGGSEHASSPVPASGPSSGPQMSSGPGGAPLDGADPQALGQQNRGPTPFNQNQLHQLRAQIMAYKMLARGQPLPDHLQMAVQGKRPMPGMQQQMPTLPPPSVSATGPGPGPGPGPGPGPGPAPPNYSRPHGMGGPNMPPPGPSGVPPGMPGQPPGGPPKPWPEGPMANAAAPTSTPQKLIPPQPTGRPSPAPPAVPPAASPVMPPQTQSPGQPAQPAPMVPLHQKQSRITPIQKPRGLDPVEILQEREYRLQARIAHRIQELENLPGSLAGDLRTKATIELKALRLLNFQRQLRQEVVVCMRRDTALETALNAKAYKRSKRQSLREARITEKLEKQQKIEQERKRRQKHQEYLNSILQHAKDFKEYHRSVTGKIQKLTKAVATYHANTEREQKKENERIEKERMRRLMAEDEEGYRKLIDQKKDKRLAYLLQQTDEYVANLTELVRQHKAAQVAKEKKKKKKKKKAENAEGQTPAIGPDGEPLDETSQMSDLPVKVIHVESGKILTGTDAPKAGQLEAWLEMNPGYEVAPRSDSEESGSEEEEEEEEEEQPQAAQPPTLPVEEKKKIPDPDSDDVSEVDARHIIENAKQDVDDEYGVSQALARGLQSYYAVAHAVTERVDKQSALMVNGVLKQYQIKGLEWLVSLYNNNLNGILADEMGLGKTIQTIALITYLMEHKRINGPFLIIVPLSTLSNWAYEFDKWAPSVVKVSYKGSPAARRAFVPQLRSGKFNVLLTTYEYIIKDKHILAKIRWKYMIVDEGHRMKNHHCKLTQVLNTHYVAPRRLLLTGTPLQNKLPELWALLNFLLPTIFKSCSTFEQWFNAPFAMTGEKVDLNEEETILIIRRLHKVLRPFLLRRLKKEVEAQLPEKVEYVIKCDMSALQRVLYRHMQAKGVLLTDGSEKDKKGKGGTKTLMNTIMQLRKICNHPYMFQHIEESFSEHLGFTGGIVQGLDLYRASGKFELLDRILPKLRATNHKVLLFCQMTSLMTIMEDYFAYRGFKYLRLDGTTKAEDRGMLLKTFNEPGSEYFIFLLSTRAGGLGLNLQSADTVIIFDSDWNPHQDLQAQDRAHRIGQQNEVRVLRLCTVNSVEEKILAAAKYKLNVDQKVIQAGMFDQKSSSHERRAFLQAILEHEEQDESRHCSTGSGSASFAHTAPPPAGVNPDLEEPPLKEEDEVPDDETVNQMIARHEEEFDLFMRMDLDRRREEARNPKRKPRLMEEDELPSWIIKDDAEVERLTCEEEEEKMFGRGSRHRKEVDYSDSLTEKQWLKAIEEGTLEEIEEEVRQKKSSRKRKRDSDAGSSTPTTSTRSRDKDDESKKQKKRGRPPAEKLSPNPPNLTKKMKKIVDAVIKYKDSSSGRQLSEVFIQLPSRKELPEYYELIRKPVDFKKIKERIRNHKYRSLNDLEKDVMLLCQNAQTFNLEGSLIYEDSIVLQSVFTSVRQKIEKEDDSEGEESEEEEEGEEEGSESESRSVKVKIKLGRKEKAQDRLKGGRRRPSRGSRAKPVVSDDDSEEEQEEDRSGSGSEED
T1 sequence (P51531 whole entry, the tested form may be a part): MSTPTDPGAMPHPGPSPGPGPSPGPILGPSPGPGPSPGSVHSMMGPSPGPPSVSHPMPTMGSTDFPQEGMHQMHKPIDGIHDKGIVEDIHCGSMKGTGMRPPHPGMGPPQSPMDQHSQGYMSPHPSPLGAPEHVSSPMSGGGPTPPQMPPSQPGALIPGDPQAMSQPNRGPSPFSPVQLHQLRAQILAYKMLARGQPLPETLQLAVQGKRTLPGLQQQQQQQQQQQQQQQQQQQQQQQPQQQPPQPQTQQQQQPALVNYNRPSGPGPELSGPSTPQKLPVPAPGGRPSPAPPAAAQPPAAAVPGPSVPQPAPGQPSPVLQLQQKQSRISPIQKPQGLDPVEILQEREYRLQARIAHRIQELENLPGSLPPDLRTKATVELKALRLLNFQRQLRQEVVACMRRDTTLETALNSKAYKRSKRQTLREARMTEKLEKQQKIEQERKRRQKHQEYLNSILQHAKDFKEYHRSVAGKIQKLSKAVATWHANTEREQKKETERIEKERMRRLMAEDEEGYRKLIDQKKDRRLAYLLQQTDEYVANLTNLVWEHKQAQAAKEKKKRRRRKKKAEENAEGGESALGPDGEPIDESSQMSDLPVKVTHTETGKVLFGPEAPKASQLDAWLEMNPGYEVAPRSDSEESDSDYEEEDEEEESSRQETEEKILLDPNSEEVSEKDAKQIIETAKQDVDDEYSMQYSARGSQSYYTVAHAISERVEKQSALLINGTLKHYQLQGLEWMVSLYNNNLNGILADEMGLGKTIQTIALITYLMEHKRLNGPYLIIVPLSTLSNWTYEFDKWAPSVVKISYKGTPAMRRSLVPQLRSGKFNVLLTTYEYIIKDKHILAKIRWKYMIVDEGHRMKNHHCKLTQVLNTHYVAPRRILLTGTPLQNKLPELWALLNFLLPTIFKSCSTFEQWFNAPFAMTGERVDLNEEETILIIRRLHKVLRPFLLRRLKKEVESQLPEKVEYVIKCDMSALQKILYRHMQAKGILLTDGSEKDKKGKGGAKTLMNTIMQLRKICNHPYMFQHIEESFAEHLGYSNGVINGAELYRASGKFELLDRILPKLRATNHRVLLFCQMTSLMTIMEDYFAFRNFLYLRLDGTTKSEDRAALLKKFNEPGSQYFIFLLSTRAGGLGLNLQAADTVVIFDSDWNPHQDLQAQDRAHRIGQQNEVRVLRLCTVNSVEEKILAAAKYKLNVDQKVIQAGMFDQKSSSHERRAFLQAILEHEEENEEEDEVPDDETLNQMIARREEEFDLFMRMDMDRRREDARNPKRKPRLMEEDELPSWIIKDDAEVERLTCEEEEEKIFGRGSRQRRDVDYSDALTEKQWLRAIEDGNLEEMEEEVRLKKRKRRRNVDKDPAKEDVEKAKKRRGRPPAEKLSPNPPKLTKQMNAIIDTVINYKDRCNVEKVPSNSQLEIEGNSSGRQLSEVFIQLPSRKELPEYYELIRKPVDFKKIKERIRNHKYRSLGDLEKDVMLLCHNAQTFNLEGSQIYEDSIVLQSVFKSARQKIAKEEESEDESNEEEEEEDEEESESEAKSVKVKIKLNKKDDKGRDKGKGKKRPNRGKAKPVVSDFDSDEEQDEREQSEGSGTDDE

Row | SMILES | DC50 (HiBit-BRM fusion protein) [nM] | Dmax [1] [%] | DC50 [1] [nM] | BRM HiBit Degradation Maximum (%) (HiBit-BRM fusion protein)
1 | Cc1ncsc1-c1ccc([C@H](C)NC(=O)[C@@H]2C[C@@H](O)CN2C(=O)[C@@H](c2cc(-c3cnc(N4CC[C@@H](c5cc6nnc(-c7ccccc7O)cc6n5C5CCC5)C4)nc3)no2)C(C)C)cc1 [Compound 102, (2S,4R)-1-((R)-2-(3-(2-((R)-3-(5-cyclobutyl-3-(2-hydroxyphenyl)-5H-pyrrolo[3,2-c]pyridazin-6-yl)pyrrolidin-1-yl)pyrimidin-5-yl)isoxazol-5-yl)-3-methylbutanoyl)-4-hydroxy-N-((S)-1-(4-(4-methylthiazol-5-yl)phenyl)ethyl)pyrrolidine-2-carboxamide] | < 10 | < 50 |  | A (“A” indicates maximum degradation ≥75%)
2 | Cc1ncsc1-c1ccc([C@H](C)NC(=O)[C@@H]2C[C@@H](O)CN2C(=O)[C@@H](c2cc(N3CC4(CC(c5cc6nnc(-c7ccccc7O)cc6n5C5(CF)CC5)C4)C3)no2)C(C)C)cc1 [Compound 68, (2S,4R)-1-((R)-2-(3-(6-(5-(1-(fluoromethyl)cyclopropyl)-3-(2-hydroxyphenyl)-5H-pyrrolo[3,2-c]pyridazin-6-yl)-2-azaspiro[3.3]heptan-2-yl)isoxazol-5-yl)-3-methylbutanoyl)-4-hydroxy-N-((S)-1-(4-(4-methylthiazol-5-yl)phenyl)ethyl)pyrrolidine-2-carboxamide] | < 10 | < 50 |  | A (“A” indicates maximum degradation ≥75%)

Further lines, with some results ahead:

Row | DC50 (HiBit-BRM fusion protein) [nM] | Dmax [1] [%] | DC50 [1] [nM] | SMILES | BRM HiBit Degradation Maximum (%) (HiBit-BRM fusion protein)
3 | < 10 | < 50 |  | Cc1ncsc1-c1ccc([C@H](C)NC(=O)[C@@H]2C[C@@H](O)CN2C(=O)[C@@H](c2cc(N3CC4(CC(c5cc6nnc(-c7ccccc7O)cc6n5CC5CC5)C4)C3)no2)C(C)C)cc1 [Compound 77, (2S,4R)-1-((R)-2-(3-(6-(5-(cyclopropylmethyl)-3-(2-hydroxyphenyl)-5H-pyrrolo[3,2-c]pyridazin-6-yl)-2-azaspiro[3.3]heptan-2-yl)isoxazol-5-yl)-3-methylbutanoyl)-4-hydroxy-N-((S)-1-(4-(4-methylthiazol-5-yl)phenyl)ethyl)pyrrolidine-2-carboxamide] | A (“A” indicates maximum degradation ≥75%)
4 | < 10 | > 50 | < 10 | Cc1ncsc1-c1ccc([C@H](C)NC(=O)[C@@H]2C[C@@H](O)CN2C(=O)[C@@H](c2cc(-c3cnc(N4CC[C@@H](c5cc6nnc(-c7ccccc7O)cc6n5C5(C)CC5)C4)nc3)no2)C(C)C)cc1 [Compound 103, (2S,4R)-4-hydroxy-1-((R)-2-(3-(2-((R)-3-(3-(2-hydroxyphenyl)-5-(1-methylcyclopropyl)-5H-pyrrolo[3,2-c]pyridazin-6-yl)pyrrolidin-1-yl)pyrimidin-5-yl)isoxazol-5-yl)-3-methylbutanoyl)-N-((S)-1-(4-(4-methylthiazol-5-yl)phenyl)ethyl)pyrrolidine-2-carboxamide] | A (“A” indicates maximum degradation ≥75%)
5 | > 10 | > 50 | > 10 | Cc1ncsc1-c1ccc(CNC(=O)[C@@H]2C[C@@H](O)CN2C(=O)[C@@H](c2cc(-c3cnc(N4CC[C@@H](c5cc6nnc(-c7ccccc7O)cc6n5C5CC5)C4)nc3)no2)C(C)C)cc1 [Compound 89, (2S,4R)-1-((R)-2-(3-(2-((R)-3-(5-cyclopropyl-3-(2-hydroxyphenyl)-5H-pyrrolo[3,2-c]pyridazin-6-yl)pyrrolidin-1-yl)pyrimidin-5-yl)isoxazol-5-yl)-3-methylbutanoyl)-4-hydroxy-N-(4-(4-methylthiazol-5-yl)benzyl)pyrrolidine-2-carboxamide] | A (“A” indicates maximum degradation ≥75%)
